The source of these data is US9181189B2, “Lipogenesis inhibitor compounds” (PIERRE FABRE DERMO-COSMETIQUE, priority 2011, dated 2015).

In test [1] the test system is differentiated sebocytes (Tel-E6E7 line). Nature of the test: Production of intracellular lipids by differentiated sebocytes (Nile Red / Adipored quantitation). In kind it is cell-based, human. The settings on record: for production of lipids by the sebocytes: Tel-E6E7 line differentiated 7 days in the presence of testosterone and other supplements, FIG. 1; for inhibitor effect on lipogenesis directly induced by DHT: Tel-E6E7 line differentiated in the presence of DHT and other supplements, FIG. 2. On the procedure: The Tel-E6E7 line (courtesy of Dr. Stephen Lyle, University of Massachusetts, USA) is a human epithelial line derived from stem cells of the hair follicle bulb.
Differentiation into sebocytes of the Tel-E6E7 line was conducted under the conditions described by S. Lyle. The cells were seeded in 24-well plates at a density of 25 000 cells/cm^2 in DME medium supplemented with 46% HamF12 medium, 6% foetal calf serum (FCII, Hyclone), 2% human serum and 10 nM EGF. Two days after seeding, the differentiation of the cells into sebocytes was induced by adding the following supplements to the culture medium: 0.1 μM testosterone (or DHT (0.1 μM)), 1 μM Troglitazone, 100 μM WyA4643 and 10 nM Insulin. The derivatives to be tested were added at the same time. Sebocyte differentiation was continued for 7 days. The culture medium and the derivatives to be tested were renewed every 2-3 days. The production of intracellular lipids was measured by quantitation of the Nile Red marker (Adipored kit, Lonza) and following the manufacturer's instructions. The amount of measured fluorescence (Relative Fluorescence Units) is proportional to the quantity of accumulated neutral intracellular lipids. All tested conditions were performed in duplicate and repeated three times.
The inventors studied the variations in lipid levels produced by the sebocytes after a differentiation time of 7 days in the presence of testosterone treated with the derivatives of the present invention.

A further test deals with T1, type-1 5-α-reductase (Homo sapiens, UniProt P18405).
T1 construct: endogenous in cells
T1 sequence (P18405 1-259): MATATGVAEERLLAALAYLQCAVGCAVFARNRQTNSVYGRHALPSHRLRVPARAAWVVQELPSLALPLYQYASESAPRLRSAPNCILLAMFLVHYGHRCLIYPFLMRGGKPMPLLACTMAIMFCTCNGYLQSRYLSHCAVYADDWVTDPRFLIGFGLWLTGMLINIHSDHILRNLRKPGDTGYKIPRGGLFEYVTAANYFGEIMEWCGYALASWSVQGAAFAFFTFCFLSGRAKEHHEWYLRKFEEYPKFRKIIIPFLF
The settings on record: fibroblast cultures; cited from earlier work.

As to `CCCCCCCCCCCC(=O)OCC(O)COC(=O)C1CCCNC1` (centres unmarked) [3-(dodecanoyloxy)-2-hydroxypropyl piperidine-3-carboxylate], the “production of lipids by the sebocytes” value in test [1] (10 μM) is “significant decrease”.

As for `CCCCCCCCCCCC(=O)OCC(O)COC(=O)c1cccnc1` (centres unmarked) [glyceryl laurate nicotinate, 3-(dodecanoyloxy)-2-hydroxypropyl nicotinate], the “production of lipids by the sebocytes” value in test [1] (5 μM) and in test [1] (10 μM) was “decreases most significantly” throughout.

`CCCCCCCCCCCC(=O)OCC(O)CO` (centres unmarked) [glyceryl laurate, 2,3-dihydroxypropyl dodecanoate]: the “production of lipids by the sebocytes” value in test [1] (5 μM) and in test [1] (10 μM) was “does not reach the significance threshold” throughout. Further, the “inhibiting effect on type-1 5-α-reductase” value on type-1 5-α-reductase is reported as “inhibiting effect”.

`O=C(O)c1cccnc1` [nicotinic acid]: the “inhibitor effect on lipogenesis directly induced by DHT” value in test [1] was “do not show any inhibitor effect”.

Turning to `O=C(O)C1CCCNC1` (centres unmarked) [nipecotic acid], in test [1], the “inhibitor effect on lipogenesis directly induced by DHT” value is recorded as “do not show any inhibitor effect”.
